Like-named read-outs stand apart in the source and are kept apart here. Peptide text beside a SMILES is read from it.
System: 5/6 kidney nephrectomised rat model
Type: in vivo
Conditions: for incidence of chronic progressive nephropathy (animals affected/animals examined) / effect on incidence/occurrence of chronic progressive nephropathy (in words): 9 days; for incidence of chronic progressive nephropathy (animals affected/animals examined): 5/6 nephrectomised rats; for effect on incidence/occurrence of chronic progressive nephropathy (in words): continuous i.v. infusion, all doses, versus nephrectomised control; for changes in blood levels of biomarkers for kidney and liver injury / treatment-related clinical signs / tolerability of intravenous infusion: rat, in vivo
Description: The effect of L-glutamine (administered in form of L-alanyl-L-glutamine; Dipeptiven™) following daily continuous intravenous infusion was examined in a 5/6 kidney nephrectomised rat model.
L-alanyl-L-glutamine was administered for 9 consecutive days. The effects attributable to L-glutamine (provided in form of alanyl-glutamine; Dipeptiven™) were determined by comparison to an L-alanine infusion.
To prevent protein overdose, the protein content of the animal food was adapted according to the L-alanyl-L-glutamine or L-alanine dose administered intravenously.
The study was conducted according to the following design:
Group 1 and 2 animals (control) received the vehicle (0.9% NaCl).
Groups 5 and 6 received Dipeptiven™ without any dilution, i.e. L-alanyl-L-glutamine in a concentration of 200 mg/ml.
Group 3 and 4 animals received diluted Dipeptiven™, i.e. L-alanyl-L-glutamine in a concentration of 13.33 and 80 mg/ml respectively.
Group 7 and 8 animals received L-alanine in a concentration of 32 and 80 mg/ml respectively.
All animals in groups 1 and 3 to 8 underwent a 5/6 nephrectomy. All animals in group 2 were “sham operated”, meaning the abdomen was opened and closed in the surgery, but the kidneys were not excised and remained in the body.
During the acclimatisation period, a polyurethane catheter was implanted into the posterior vena cava via the left femoral vein. Following implantation, the animals were maintained on continuous infusion with physiological saline prior to the start of treatment.
Morbidity/mortality checks were performed at least twice daily. Clinical observations were performed daily. A full clinical examination was performed daily. Individual body weights were recorded three times a week. Food consumption was measured three times a week for each cage of animals, including one measurement during the acclimatisation period. Clinical laboratory determinations were performed on selected animals on days −1 and on days 1 to 10. Animals were sampled for amino acid determination on days 1, 4, 7 and 10. Animals were fasted before blood sampling performed on day 10.
All animals were killed at the end of the treatment period (day 10) and necropsied. Organ/tissue samples were fixed and preserved at necropsy for all animals. Selected organs/tissues from all animals were examined histopathologically. In addition, selected organs/tissues from all animals were used for amino acid determination.

[1] = 3.0 g/kg/day continuous i.v. infusion, 9% protein in diet
[2] = groups 4 and 8: 3.0 g/kg/day, 9% protein in diet, control 60%

| SMILES | incidence of chronic progressive nephropathy (animals affected/animals examined) (1.2 g/kg/day continuous i.v. infusion, 10.8% protein in diet) | incidence of chronic progressive nephropathy (animals affected/animals examined) [1] | effect on incidence/occurrence of chronic progressive nephropathy (in words) | occurrence of chronic progressive nephropathy, percent of animals [2] [%] | changes in blood levels of biomarkers for kidney and liver injury | treatment-related clinical signs | tolerability of intravenous infusion | incidence of chronic progressive nephropathy (animals affected/animals examined) (0.5 g/kg/day continuous i.v. infusion, 12% protein in diet) | incidence of chronic progressive nephropathy (animals affected/animals examined) (7.5 g/kg/day continuous i.v. infusion, 4.5% protein in diet) | incidence of chronic progressive nephropathy (animals affected/animals examined) (7.5 g/kg/day continuous i.v. infusion, 12% protein in diet (amino acid overload)) | incidence of chronic progressive nephropathy (animals affected/animals examined) (7.5 g/kg/day continuous i.v. infusion, 12% protein in diet (amino acid overload), listed as L-alanyl-L-glutamine) | occurrence of chronic progressive nephropathy, percent of animals (group 3: 0.5 g/kg/day, 12% protein in diet, control 60%) [%] | occurrence of chronic progressive nephropathy, percent of animals (group 5: 7.5 g/kg/day, 4.5% protein in diet, control 60%) [%] | occurrence of chronic progressive nephropathy, percent of animals (group 6: 7.5 g/kg/day, 12% protein in diet (amino acid overload)) [%] |
| --- | --- | --- | --- | --- | --- | --- | --- | --- | --- | --- | --- | --- | --- | --- |
| C[C@H](N)C(=O)O [Ala, L-alanine] | 4/5 | 3/5 | did not | 60 | No treatment-related | No treatment-related clinical signs | overall well tolerated | – | – | – | – | – | – | – |
| C[C@H](N)C(=O)N[C@@H](CCC(N)=O)C(=O)O [Ala-Gln, L-alanyl-L-glutamine] (H-Ala-Gln-OH) | – | 0/5 | decreased incidence of chronic progressive nephropathy | 0 | No treatment-related | No treatment-related clinical signs | overall well tolerated | 2/5 | 0/5 | 1/5 | 2/5 | 40 | 0 | – |
| NC(=O)CC[C@H](N)C(=O)O [L-glutamine] | – | – | reduces the occurrence of chronic progressive nephropathy in a dose-dependent manner | – | – | – | – | – | – | – | – | – | – | 20 |
